According to PMC6151550, “Inhibitory Effect of Selaginellins from Selaginella tamariscina (Beauv.) Spring against Cytochrome P450 and Uridine 5′-Diphosphoglucuronosyltransferase Isoforms on Human Liver Microsomes” (Molecules : A Journal of Synthetic Chemistry and Natural …, 2017):

What was measured:
Assay type in all cases: in vitro ADME
[1] = molecular target: T1, UGT1A3 (Homo sapiens, UniProt P35503); assay: UGT1A3 inhibition (chenodeoxycholic acid glucuronidation) in human liver microsomes, cocktail LC-MS/MS; settings: IC50 UGT isoform 1A3, HLMs 0.25 mg/mL with alamethicin, chenodeoxycholic acid 2.0 μM
T1 construct: from tissue; host or cells: human liver microsomes
T1 sequence (P35503 29-534): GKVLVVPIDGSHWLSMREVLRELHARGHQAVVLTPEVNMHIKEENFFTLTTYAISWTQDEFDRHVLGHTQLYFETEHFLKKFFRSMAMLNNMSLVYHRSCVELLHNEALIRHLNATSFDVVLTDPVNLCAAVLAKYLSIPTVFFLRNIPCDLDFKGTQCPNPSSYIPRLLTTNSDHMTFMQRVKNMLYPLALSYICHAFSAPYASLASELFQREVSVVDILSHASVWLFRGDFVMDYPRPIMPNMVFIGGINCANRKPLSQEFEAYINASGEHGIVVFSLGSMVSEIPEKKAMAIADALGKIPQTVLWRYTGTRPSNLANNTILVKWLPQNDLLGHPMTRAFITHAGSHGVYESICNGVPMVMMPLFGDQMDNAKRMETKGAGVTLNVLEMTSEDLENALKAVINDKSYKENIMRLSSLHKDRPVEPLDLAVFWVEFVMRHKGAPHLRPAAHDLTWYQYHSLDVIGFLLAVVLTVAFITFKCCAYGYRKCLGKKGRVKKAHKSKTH
Procedure: The inhibitory effects of two selaginellins on the metabolism of six UGT probe substrates were evaluated using previously reported method with minor modification. In brief, HLMs (0.25 mg/mL) were activated by incubation in the presence of alamethicin (25 μg/mL) for 15 min on ice. After the addition of UGT isoform-selective substrates and selaginellins (0, 0.5, 2, 5, 20 and 50 μM) the final concentrations of organic solvent (methanol) for the cocktail incubation conditions were 1.0% (v/v). The incubation reaction mixtures were pre-incubated for 5 min. The reaction was initiated by the addition of 5 mM UDPGA and further incubated for 60 min. All reactions were terminated by adding ice-cold acetonitrile containing estrone glucuronide (IS). After mixing and centrifugation, aliquots were injected into a LC-MS/MS as described previously (Table 2). All microsomal incubations were performed in triplicate.
The IC50 values (concentration of the inhibitor causing 50% inhibition of the original enzyme activity) were calculated using WinNonlin software (Pharsight, Mountain View, CA, USA): percentage of control activity = 100 × [1 − (I/(I + IC50))], where I is the inhibitor concentration, and IC50 is the inflection point on the curve.

[2] = molecular target: T2, CYP2D6 (Homo sapiens, UniProt P10635); assay: CYP2D6 inhibition (dextromethorphan O-demethylase) in human liver microsomes, substrate cocktail LC-MS/MS
T2 construct: the incubation mixtures containing pooled HLMs (0.25 mg/mL, H2630, Xenotech); tissue Xenotech H2630; host or cells: pooled human liver microsomes
Procedure: (§1) The inhibitory effects of two selaginellins on the metabolism of ten P450 probe substrates were evaluated using previously reported method with minor modification. Phenacetin O-deethylase, coumarin 7-hydroxylase, bupropion 4-hydroxylase, amodiaquine N-deethylase, tolbutamide 4-hydroxylase, omeprazole 5-hydroxylase, dextromethorphan O-demethylase, chlorzoxazone 6-hydroxylase and midazolam 1′-hydroxylase activities were determined as probe activities for CYP1A2, CYP2A6, CYP2B6, CYP2C8, CYP2C9, CYP2C19, CYP2D6, CYP2E1 and […], respectively, using substrate cocktail incubation and tandem mass spectrometry (Table 2). Selaginellins were dissolved in methanol. The final concentrations of organic solvent (methanol) for the cocktail incubation conditions in all experiments were 1.0% (v/v). In brief, the incubation mixtures containing pooled HLMs (0.25 mg/mL, H2630, Xenotech), P450 probe substrate cocktail, and inhibitor (0, 0.5, 2, 5, 20 and 50 μM) were preincubated at 37 °C for 5 min. […] After mixing and centrifugation, aliquots were analyzed by liquid chromatography-tandem mass spectrometry (LC-MS/MS) as previous described. The CYP2J2 inhibitory effects of two selaginellins were also evaluated in pooled HLMs using previously reported method. […]

[3] = molecular target: T3, CYP2C9 (Homo sapiens, UniProt P11712); assay: CYP2C9 inhibition (tolbutamide 4-hydroxylase) in human liver microsomes, substrate cocktail LC-MS/MS; settings: IC50 P450 isoform 2C9, pooled HLMs 0.25 mg/mL, tolbutamide 100 μM
T3 construct: the incubation mixtures containing pooled HLMs (0.25 mg/mL, H2630, Xenotech); tissue Xenotech H2630; host or cells: pooled human liver microsomes
Procedure: as §1

[4] = molecular target: T4, CYP2C19 (Homo sapiens, UniProt P33261); assay: CYP2C19 inhibition (omeprazole 5-hydroxylase) in human liver microsomes, substrate cocktail LC-MS/MS
T4 construct: the incubation mixtures containing pooled HLMs (0.25 mg/mL, H2630, Xenotech); tissue Xenotech H2630; host or cells: pooled human liver microsomes
Procedure: as §1

[5] = molecular target: T5, CYP2C8 (Homo sapiens, UniProt P10632); assay: CYP2C8 inhibition (amodiaquine N-deethylase) in human liver microsomes, substrate cocktail LC-MS/MS
T5 construct: the incubation mixtures containing pooled HLMs (0.25 mg/mL, H2630, Xenotech); tissue Xenotech H2630; host or cells: pooled human liver microsomes
T5 sequence (P10632 1-490): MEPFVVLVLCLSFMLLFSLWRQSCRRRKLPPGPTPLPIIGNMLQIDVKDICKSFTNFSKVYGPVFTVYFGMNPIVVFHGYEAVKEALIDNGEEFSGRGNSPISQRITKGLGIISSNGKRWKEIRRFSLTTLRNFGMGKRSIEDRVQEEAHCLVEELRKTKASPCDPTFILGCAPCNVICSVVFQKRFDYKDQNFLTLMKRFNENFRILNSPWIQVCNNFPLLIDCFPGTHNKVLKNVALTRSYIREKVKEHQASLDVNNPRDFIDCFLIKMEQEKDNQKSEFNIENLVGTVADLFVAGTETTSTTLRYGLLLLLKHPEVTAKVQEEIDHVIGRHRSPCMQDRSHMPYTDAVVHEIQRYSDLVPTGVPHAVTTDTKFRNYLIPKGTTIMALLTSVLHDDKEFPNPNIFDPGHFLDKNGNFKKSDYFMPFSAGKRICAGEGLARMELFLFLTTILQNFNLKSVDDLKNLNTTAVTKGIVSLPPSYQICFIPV
Procedure: The inhibitory effects of two selaginellins on the metabolism of ten P450 probe substrates were evaluated using previously reported method with minor modification. Phenacetin O-deethylase, coumarin 7-hydroxylase, bupropion 4-hydroxylase, amodiaquine N-deethylase, tolbutamide 4-hydroxylase, omeprazole 5-hydroxylase, dextromethorphan O-demethylase, chlorzoxazone 6-hydroxylase and midazolam 1′-hydroxylase activities were determined as probe activities for CYP1A2, CYP2A6, CYP2B6, CYP2C8, CYP2C9, CYP2C19, CYP2D6, CYP2E1 and […], respectively, using substrate cocktail incubation and tandem mass spectrometry (Table 2). Selaginellins were dissolved in methanol. The final concentrations of organic solvent (methanol) for the cocktail incubation conditions in all experiments were 1.0% (v/v). In brief, the incubation mixtures containing pooled HLMs (0.25 mg/mL, H2630, Xenotech), P450 probe substrate cocktail, and inhibitor (0, 0.5, 2, 5, 20 and 50 μM) were preincubated at 37 °C for 5 min. The reaction was initiated by adding of the NADPH generating system (3.3 mM G6P, 1.3 mM β-NADP+, 3.3 mM MgCl2, and 1 unit/mL G6PDH) followed by incubation for 15 min at 37 °C. Next, each incubation was stopped by addition of 50 μL ice-cold acetonitrile containing terfenadine (IS). After mixing and centrifugation, aliquots were analyzed by liquid chromatography-tandem mass spectrometry (LC-MS/MS) as previous described. The CYP2J2 inhibitory effects of two selaginellins were also evaluated in pooled HLMs using previously reported method. In brief, the incubation reaction mixtures contained 0.25 mg/mL HLMs, astemizole (1 μM) and inhibitor (0.5–50 μM) in […] phosphate buffer (pH 7.4). The reaction was initiated by the addition of NADPH-generating system and further incubated for 15 min. After reaction termination with cold acetonitrile containing 5 ng/mL terfenadine and centrifugation, aliquots were injected into a liquid chromatography-tandem mass spectrometry system (LC-MS/MS) as described previously (Table 2). All microsomal incubations were performed in triplicate. […]

T4 sequence (P33261 whole entry): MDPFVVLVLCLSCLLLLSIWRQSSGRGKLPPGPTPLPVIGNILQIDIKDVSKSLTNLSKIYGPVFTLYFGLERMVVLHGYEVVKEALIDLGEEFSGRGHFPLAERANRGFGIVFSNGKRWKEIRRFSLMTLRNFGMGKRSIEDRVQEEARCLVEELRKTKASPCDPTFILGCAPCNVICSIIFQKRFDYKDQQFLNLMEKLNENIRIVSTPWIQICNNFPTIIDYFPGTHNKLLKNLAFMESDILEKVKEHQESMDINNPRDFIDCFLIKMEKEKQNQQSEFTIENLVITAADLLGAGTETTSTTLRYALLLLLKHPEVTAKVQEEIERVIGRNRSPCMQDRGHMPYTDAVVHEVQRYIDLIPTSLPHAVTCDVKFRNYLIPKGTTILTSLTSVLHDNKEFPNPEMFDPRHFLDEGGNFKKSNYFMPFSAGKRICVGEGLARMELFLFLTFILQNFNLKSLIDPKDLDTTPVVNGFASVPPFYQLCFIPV
T3 sequence (P11712 whole entry, canonical isoform): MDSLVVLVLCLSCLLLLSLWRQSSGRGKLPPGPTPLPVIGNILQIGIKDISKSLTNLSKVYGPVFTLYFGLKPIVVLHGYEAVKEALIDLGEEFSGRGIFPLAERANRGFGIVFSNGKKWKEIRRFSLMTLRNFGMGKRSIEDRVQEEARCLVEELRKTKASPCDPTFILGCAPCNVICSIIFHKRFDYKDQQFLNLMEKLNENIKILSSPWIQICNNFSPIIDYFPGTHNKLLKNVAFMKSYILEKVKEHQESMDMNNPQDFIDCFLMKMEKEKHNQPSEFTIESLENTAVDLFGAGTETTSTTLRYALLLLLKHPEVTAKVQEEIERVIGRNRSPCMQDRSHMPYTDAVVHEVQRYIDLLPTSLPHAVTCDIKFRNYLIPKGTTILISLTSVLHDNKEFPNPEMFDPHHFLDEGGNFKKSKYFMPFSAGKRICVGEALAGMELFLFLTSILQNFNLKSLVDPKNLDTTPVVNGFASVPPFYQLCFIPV
T2 sequence (P10635 whole entry): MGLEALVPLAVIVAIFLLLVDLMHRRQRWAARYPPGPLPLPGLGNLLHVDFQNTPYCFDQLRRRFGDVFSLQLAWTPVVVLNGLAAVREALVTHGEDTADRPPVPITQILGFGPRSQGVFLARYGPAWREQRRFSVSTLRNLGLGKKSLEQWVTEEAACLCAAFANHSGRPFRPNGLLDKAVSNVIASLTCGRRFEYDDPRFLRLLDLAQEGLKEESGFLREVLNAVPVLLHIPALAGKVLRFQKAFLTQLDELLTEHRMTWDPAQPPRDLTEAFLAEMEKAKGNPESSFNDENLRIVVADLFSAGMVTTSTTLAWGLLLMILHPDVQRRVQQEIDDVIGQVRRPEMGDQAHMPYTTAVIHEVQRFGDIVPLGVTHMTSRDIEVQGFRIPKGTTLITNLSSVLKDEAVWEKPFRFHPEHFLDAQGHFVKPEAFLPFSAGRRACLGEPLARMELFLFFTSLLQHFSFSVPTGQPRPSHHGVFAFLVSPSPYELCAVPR

Row | Compound | IC50 [1] [µM] | IC50 [2] [µM] | IC50 [3] [µM] | IC50 [4] [µM] | IC50 [5] [µM] | inhibitory potential for CYP2C8-mediated amodiaquine O-demethylation (class) ([5]; human liver microsomes, class by Krippendorff's criteria)
1 | COc1ccc(C(=C2C=CC(=O)C=C2)c2c(-c3ccc(O)cc3)ccc(CO)c2C#Cc2ccc(O)cc2)cc1 [Selaginellin M] | 3.5 | 6.8 | 3.9 | 16.1 | 0.9 | –
2 | O=C1C=CC(=C(c2ccc(O)cc2)c2c(-c3ccc(O)cc3)ccc(CO)c2C#Cc2ccc(O)cc2)C=C1 [Selaginellin] | 4.7 | 5.8 | 1.2 | 10 | 0.5 | high (high (IC50 < 1 μM))
